Data: PMC10688702, “The indole motif is essential for the antitrypanosomal activity of N^5-substituted paullones” (PLOS ONE, 2023)
In brackets after ≈: the same amount, converted by molar mass.

Tests used:
[1] = tested on: trypanothione synthetase of T. b. brucei (TbTryS); experiment: TryS activity screening assay on recombinant TbTryS; format: biochemical; conditions: % activity at 30 μM compound, errors 2 SD
Experimental: TryS from different trypanosomatids was produced in recombinant form with an N-terminal His-tag. The constructs pET-15b TbTryS and pET-28c(+)LiTryS were used to express TryS of T. b. brucei 427 (MITat1.4, GenBank accession protein id CAC87573.1), and L. infantum JPCM5 (GenBank accession protein id CAM69145.1). E. coli strain BL21 (DE3) served as the expression host. For TbTryS, the cells were cultured in a medium based in Terrific Broth and induction with isopropyl 1-thio-β-D-galactopyranoside (IPTG), while for LiTryS, the cells were cultured in ZYM-5052 auto-induction medium. For a detailed description of the expression, see Benítez et al.. The purification was performed by immobilised metal affinity chromatography in a HisTrap Fast Flow column (GE Healthcare) followed by size exclusion chromatography. […] The fractions containing recombinant TryS with ≥95% purity were pooled and concentrated to >10 mg protein/mL using a 10 kDa cut-off Amicon filter (Millipore, Billerica, CA). Glycerol was added at a final concentration of 40% (v/v). The samples were stored at -80°C. Enzyme purity and activity were assessed by SDS-PAGE (12%) under reducing conditions and by the end-point TryS assay (see TryS activity screening assay), respectively. Protein concentration was determined using the bicinchoninic acid assay with bovine serum albumin as standard. The protocols yielded 25–30 mg TbTryS or LiTryS per litre of culture medium and homogeneous specific activity.
For all TryS, ATP was used at 150 μM because of a high background signal at higher concentrations and Spd fixed at 2 mM, in agreement with the intracellular levels calculated from data reported in the literature for trypanosomatids. GSH was adjusted to 0.05 and 0.25 mM for TbTryS and LiTryS, respectively, to avoid substrate inhibition or to approach physiological concentrations. […] Microtiter plate wells were loaded with 5 μL of the test compound, DMSO (reaction control) or a TryS specific inhibitor (inhibition control) and 40 μL of MM solution. The reactions were then started by adding 5 μL of TryS (2 and 3*10^−5 μmol*min^-1*mL^-1 for LiTryS and TbTryS, respectively) and stopped after 15 min with 200 μL BIOMOL® GREEN reagent (Enzo Life Sciences). The compounds used as inhibition control were added at concentrations that inhibited 50% TryS activity: 30 μM and 150 nM MOL2008 for TbTryS and LiTryS, respectively. Blanks were prepared for each condition by adding 5 μL of screening reaction buffer instead of the enzyme. The TryS activity is calculated as follows: TrySactivity%=A650nmCi-A650nmCiB/A650nmE-A650nmEB*100%
A650 nm Ci is the mean absorbance at 650 nm for the reaction test with compound I (Ci), A650 nm CiB is the mean absorbance at 650 nm for the blank control with compound I (CiB), A650 nm E is the mean absorbance at 650 nm for the reaction control with DMSO (E) and A650 nm EB is the mean absorbance at 650 nm for the blank control with DMSO (EB). The errors were expressed as 2 standard deviations (SD), SD estimated as σ^n−1.

[2] = Thermodynamic aqueous solubility, shake-flask method and HPLC-UV; format: physicochemical; conditions: phosphate-buffered saline, aqueous buffer, thermodynamic from solid, PBS pH 7.4, 25°C, up to 72 h, HPLC-UV, logS of molar solubility [M]
Experimental: Phosphate-buffered saline pH 7.4 was prepared according to the European Pharmacopeia 10.4 by dissolving 2.38 g sodium monohydrogen phosphate dodecahydrate, 0.19 g potassium dihydrogen phosphate and 8.0 g sodium chloride in demineralised water (to a total volume of 1000 mL). The pH was adjusted to a value of 7.4 with hydrochloric acid. The buffer was filtered through a 0.45 μm membrane filter (Chromafil® Xtra PES-45/25) before use.
The thermodynamic aqueous solubility was determined by a miniaturised shake-flask method. […] A negative control with the buffer (400 μL) was incubated for every time point and measured likewise. After incubation for 24 h, 48 h and 72 h, the vials were checked for undissolved compound; then the filter plunger was punched into the vial for filtration. […] The calibration curve was obtained from at least three dilutions and five measuring points from a DMSO stock solution of the respective compound.

[3] = tested on: bloodstream form of T. b. brucei strain 427; experiment: Viability assay for T. b. brucei (whole parasite, bioluminescence); format: cell-based; conditions: 24 h; for T. b. brucei (BS) proliferation [% at 10 μM]: 10 μM compound; for EC50: Trypanosoma brucei, read-out: T. b. brucei (BS) [EC50
Experimental: Viability assay for T. b. brucei. The bloodstream form of the monomorphic T. b. brucei strain 427, cell line 5141313, constitutively and stably expressing an ectopic copy of the Photinus pyralis red-shifted luciferase, was cultured in vitro with HMI-9 medium, supplemented with 10% fetal bovine serum, 10 U/mL penicillin (Gibco), 10 μg/mL streptomycin (Gibco), 0.2 μg/mL bleomycin (Jena Bioscience), 4 μg/mL G418 disulfate salt (Sigma-Aldrich) and 0.2 μg/mL puromycin (Invitrogen), inside a humidified incubator (Thermo Fisher Scientific) with controlled temperature (37°C) and CO2 (5%) in a 25 or 75 cm^2 vented-cap culture-flask. The anti-trypanosomal activity of compounds was evaluated in a 96-well culture plate containing 2.2 μL/well DMSO (negative control) or compounds dissolved in DMSO (1% final concentration), and 220 μL/well of a suspension of 1 × 10^5 parasites/mL. The plates were incubated at 37°C and 5% CO2 for 24 h. Next, each well was transferred to a 96-well black plate, and 20 μL of a solution containing d-luciferin (1.5 mg/mL in PBS glucose 1% w/v) and Triton X-100 (0.05% v/v) was added. Bioluminescence signal was measured in a LUMIstar OPTIMA Microplate luminometer using the following settings: 10 s shaking, 5 s/well acquisition, 0.2 s measurement delay, maximum gain, and 37°C. For the bioluminescence assay, parasite viability was calculated according to the following formula: parasiteviability%=BLcpd-BLblank/BLneg-BLblank*100%
BL refers to the mean of bioluminescence signal corresponding to the tested compound (cpd), the blank (blank, complete media containing 1% v/v DMSO), or the negative control (neg, parasites treated with 1% v/v DMSO). EC50 values were determined from concentration-response curves fitted to a four-parameter sigmoid equation using the GraphPad Prism software (version 6.0). All errors are expressed as one SD, estimated as σ^n-1. For a detailed explanation of the protocol, see Dibello et al..

Compound | TbTryS activity [% at 30 μM] [1] [%] | solubility thermodynamic at 72 h [2] [M] | T. b. brucei (BS) proliferation [% at 10 μM] [3] [%] | EC50 [3] [µM]
CNCCNC(=O)CN1C(=O)Cc2c([nH]c3ccc(I)cc23)-c2ccc(Cl)cc21 [1f, 2-(3-Chloro-9-iodo-6-oxo-7,12-dihydrobenzo[2,3]azepino[4,5-b]indol-5(6H)-yl)-N-[2-(methylamino)ethyl]acetamide] | 82.9 ± 6.5 | 1.7e-06 (≈ 0.888 µg/mL) | 0.0 ± 1.7 | 6.4 ± 1.7
CNCCNC(=O)CN1C(=O)Cc2c([nH]c3ccc(Cl)cc23)-c2ccc(Cl)cc21 [1g, 2-(3,9-Dichloro-6-oxo-7,12-dihydrobenzo[2,3]azepino[4,5-b]indol-5(6H)-yl)-N-[2-(methylamino)ethyl]acetamide] | 82.8 ± 5.9 | 1.29e-05 (≈ 5.56 µg/mL) | 0.0 ± 0.3 | 4.7 ± 1.1
CNCCNC(=O)CN1C(=O)Cc2c([nH]c3ccc(C(F)(F)F)cc23)-c2ccc(Cl)cc21 [1h, 2-(3-Chloro-6-oxo-9-trifluoromethyl-7,12-dihydrobenzo[2,3]azepino[4,5-b]indol-5(6H)-yl)-N-[2-(methylamino)ethyl]acetamide] | 87.8 ± 4.6 | < 2.95e-07 | 0.9 ± 1.3 | 6.6 ± 1.1
